Columns and labels:
Experiment in all cases: relative viability (nuclei count vs DMSO), 5 days (fraction); higher = more cells survive
[1] = compound: CC1=CC=C(C=C1)C(=O)CN2C3=C(CCCC3)SC2=N [Pifithrin_alpha] + CC1(C)CCC(c2ccc(Cl)cc2)=C(CN2CCN(c3ccc(C(=O)NS(=O)(=O)c4ccc(N[C@H](CCN5CCOCC5)CSc5ccccc5)c(S(=O)(=O)C(F)(F)F)c4)cc3)CC2)C1 [Navitoclax] (partner 0.5 µM)
In short: (§1)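 Values are medians from duplicate plates. Each reflects relative viability, defined as the nuclei count of treated wells over that of vehicle wells. Lung cancer cell lines in 1536-well plates were pin-tool dosed one day after seeding with one drug alone or with a fixed anchor-drug dose plus five library-drug doses (not always all listed) in √10 steps, then fixed, stained and imaged at 4× after 5 days.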

[2] = compound: CC1=CC=C(C=C1)C(=O)CN2C3=C(CCCC3)SC2=N [Pifithrin_alpha] + N=C(N)NC(=N)NCCc1ccccc1 [Phenformin] (partner 250 µM)
In short: as §1

Axitinib + Trametinib = compound: CNC(=O)c1ccccc1Sc1ccc2c(/C=C/c3ccccn3)n[nH]c2c1 [Axitinib] + CC(=O)Nc1cccc(-n2c(=O)n(C3CC3)c(=O)c3c(Nc4ccc(I)cc4F)n(C)c(=O)c(C)c32)c1 [Trametinib] (partner 0.02 µM)
In short: as §1

Axitinib + Luminespib = compound: CNC(=O)c1ccccc1Sc1ccc2c(/C=C/c3ccccn3)n[nH]c2c1 [Axitinib] + CCNC(=O)c1noc(-c2cc(C(C)C)c(O)cc2O)c1-c1ccc(CN2CCOCC2)cc1 [Luminespib] (partner 0.01 µM)
In short: as §1

Cell Line | relative viability ([1]; first compound 1 µM) | relative viability ([1]; first compound 3.162 µM) | relative viability ([1]; first compound 10 µM) | relative viability ([1]; first compound 31.62 µM) | relative viability ([1]; first compound 100 µM) | relative viability ([2]; first compound 1 µM) | relative viability ([2]; first compound 3.162 µM) | relative viability ([2]; first compound 10 µM) | relative viability ([2]; first compound 31.62 µM) | relative viability ([2]; first compound 100 µM) | relative viability (Axitinib + Trametinib; first compound 0.005 µM) | relative viability (Axitinib + Trametinib; first compound 0.01581 µM) | relative viability (Axitinib + Trametinib; first compound 0.05 µM) | relative viability (Axitinib + Trametinib; first compound 0.1581 µM) | relative viability (Axitinib + Trametinib; first compound 0.5 µM) | relative viability (Axitinib + Luminespib; first compound 0.005 µM) | relative viability (Axitinib + Luminespib; first compound 0.01581 µM) | relative viability (Axitinib + Luminespib; first compound 0.05 µM) | relative viability (Axitinib + Luminespib; first compound 0.1581 µM) | relative viability (Axitinib + Luminespib; first compound 0.5 µM)
LXF-289 | 0.984 | 1.01 | 0.96 | 0.793 | 0.901 | 0.509 | 0.562 | 0.526 | 0.471 | 0.556 | 0.703 | 0.644 | 0.683 | 0.684 | 0.701 | 0.69 | 0.721 | 0.659 | 0.573 | 0.781
SK-LU-1 | 1.07 | 1.07 | 1.07 | 0.626 | 0.823 | 0.511 | 0.624 | 0.49 |  | 0.625 | 0.515 | 0.631 | 0.478 | 0.412 | 0.459 | 0.224 | 0.21 | 0.188 | 0.201 | 0.238
NCI-H23 | 0.797 | 0.857 | 0.889 | 0.736 | 0.729 | 0.853 | 0.734 | 0.764 |  | 0.753 | 0.45 | 0.373 | 0.433 | 0.405 | 0.368 | 0.21 |  | 0.233 | 0.231 | 0.219
CAL-12T |  | 1.22 | 1.16 | 0.686 | 1.15 | 0.604 | 0.558 | 0.533 |  | 0.457 | 0.401 | 0.311 | 0.336 | 0.288 | 0.338 | 0.96 | 0.302 | 0.216 | 0.672 | 0.364
A-427 | 0.803 | 0.843 | 0.79 | 0.773 | 0.933 | 0.318 | 0.305 | 0.245 | 0.235 | 0.264 | 0.89 | 0.711 | 0.758 | 0.761 | 0.879 | 0.998 | 1.03 | 1.03 | 0.926 | 0.919
NCI-H2009 | 1.24 | 1.1 | 1.05 | 0.784 | 0.957 | 0.483 | 0.467 | 0.451 | 0.345 | 0.422 | 0.279 | 0.252 | 0.304 | 0.245 | 0.254 | 1.11 | 1.12 | 1.02 | 1.07 | 1.16
